Assay results: PubChem BioAssay (NCI)
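Protocol summary: plate cells (96-well), add compound at 5 concentrations, incubate 48 h, interpolate endpoints linearly. Abbreviation: GI50, concentration required for 50% inhibition of growth. Definition used: TGI = concentration required for complete inhibition of growth.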

Tests used:
Test in all cases: growth of human tumour cells (NCI), 48 h
RPMI-8226 leukemia = tested on: RPMI-8226 leukemia
COLO 205 colon = tested on: COLO 205 colon
UACC-257 melanoma = tested on: UACC-257 melanoma
NCI-H226 lung = tested on: NCI-H226 lung
HOP-62 NSCLC = tested on: HOP-62 NSCLC
K-562 leukemia = tested on: K-562 leukemia
U251 CNS = tested on: U251 CNS
A549 NSCLC = tested on: A549 NSCLC
MALME-3M melanoma = tested on: MALME-3M melanoma
SK-MEL-5 melanoma = tested on: SK-MEL-5 melanoma

SMILES | GI50 (RPMI-8226 leukemia) [µM] | TGI (RPMI-8226 leukemia) [µM] | GI50 (COLO 205 colon) [µM] | TGI (COLO 205 colon) [µM] | GI50 (UACC-257 melanoma) [µM] | TGI (UACC-257 melanoma) [µM] | GI50 (NCI-H226 lung) [µM] | TGI (NCI-H226 lung) [µM] | GI50 (HOP-62 NSCLC) [µM] | TGI (HOP-62 NSCLC) [µM] | GI50 (K-562 leukemia) [µM] | TGI (K-562 leukemia) [µM] | GI50 (U251 CNS) [µM] | TGI (U251 CNS) [µM] | GI50 (A549 NSCLC) [µM] | TGI (A549 NSCLC) [µM] | GI50 (MALME-3M melanoma) [µM] | TGI (MALME-3M melanoma) [µM] | GI50 (SK-MEL-5 melanoma) [µM] | TGI (SK-MEL-5 melanoma) [µM]
CC(C)(C)c1cc(O)c(O)c(C(C)(C)C)c1 | 3.17 | 7.69 | 3.61 | 12.2 | 2.42 | 7.4 | 6.35 | 22.8 | 8.96 | 29 | 2.47 | 7.44 | 4.35 | 16.1 | 3.49 | 12.2 | 3.13 | 9.71 | 4.68 | 15.8
Oc1ccccc1/C=N/Nc1ccc2ccccc2n1 | 3.45 | > 100 | 3.66 | > 100 | 3.14 | 9.57 | 4.6 | > 100 | 7.09 | 44.7 | 3.18 | > 100 | 4.23 | 31.5 | 5.33 | > 100 | 8.18 | > 100 | 4.12 | > 100
CNC(=O)c1ccccc1CC1(O)c2ccccc2Oc2ccccc21 | 26.6 | 91.7 | 3.99 | 15.9 | 33.8 | > 100 | 11.3 | 34.8 | 17.2 | 74.5 | 6.78 | > 100 | 19.6 | 59.6 | 16.5 | > 100 | 22.8 | > 100 | 3.2 | 13
CC(=O)c1ccc(Nc2cc(-c3ccccc3)nc3c(O)cccc23)cc1 | 8.8 | 46.8 | 32.1 | > 100 | 21 | 53.4 | 28.2 | > 100 | 10.6 | 36 | 4.73 | > 100 | 9.44 | > 100 | 30.6 | > 100 | 19.6 | 68.3 | 13 | 26.7
CN=C(N)N/N=C(\c1ccccc1)c1ccc(Br)cc1 | 0.441 | 3.13 | 0.279 | 1.04 | 0.913 | 12.9 | 1.09 | 11.8 | 1.15 | 13.3 | 0.294 | 6.31 | 0.375 | 2.63 | 0.394 | 10.1 | 1.13 | 4.24 | 0.335 | 1.29
COC(=O)C(=O)CC(=O)CCn1ncc(Cl)c(Cl)c1=O |  | 52.6 |  | 31.8 |  | 25.8 |  | 39.3 |  | 42.1 |  | 9.54 |  | 22 |  | 36.5 |  | 21.3 |  | 30.8
C[C@@H]1CC[C@@H]2[C@@H]1[C@H](OC(=O)/C=C/c1ccccc1)[C@]1(c3ccccc3)C[C@@H](OC(=O)CO)[C@@]2(C)O1 | 10.3 | 38.9 | 16.1 | 32.7 | 21.1 | 43.1 | 13.2 | 29 | 16.2 | 31.1 | 7.76 | > 100 | 14.2 | 29.3 | 14.8 | 33.8 | 16.5 | 31.4 | 13.4 | 26.2
CC(=O)OC1=C2CC3(C)OC(=O)CC(C)(C)C3=CC=C2C=C(C(C)C)C1=O (stereo not given) |  | 0.56 |  | 2.05 |  | 1.1 |  | 3.26 |  | 19.9 |  | > 100 |  | 2.99 |  | 3.78 |  | 1.17 |  | 2.12
C=CCSC[C@H](NC(=O)COc1ccccc1)C(=O)NC(C(=O)OCc1ccc([N+](=O)[O-])cc1)=C(C)C |  | > 100 |  | 39 |  | > 100 |  | > 100 |  | > 100 |  | > 100 |  | > 100 |  | > 100 |  | > 100 |  | > 100
Cc1nn(-c2ccc(S(=O)(=O)[O-])cc2)c([O-])c1N=[N+](C)c1ccc(-c2ccc(N=Nc3ccc4c(S(=O)(=O)[O-])cc(S(=O)(=O)[O-])c(N)c4c3[O-])c([O-])c2)cc1[O-].[Cu+2].[Cu+2].[Na+] | > 100 | > 100 | > 100 | > 100 | > 100 | > 100 | > 100 | > 100 | > 100 | > 100 | > 100 | > 100 | > 100 | > 100 | > 100 | > 100 | > 100 | > 100 | > 100 | > 100
